ChEMBL document CHEMBL2150911, “Charting, navigating, and populating natural product chemical space for drug discovery” (J Med Chem, 2012)

Experiments:
[1] = biological target: T1, M-phase inducer phosphatase 1 (Homo sapiens, UniProt P30304); test: Inhibition of His-tagged Cdc25A expressed in the Escherichia coli BL21(DE3) using p-nitrophenyl phosphate as substrate for 80 mins by spectrophotometry
T1 sequence (P30304 whole entry): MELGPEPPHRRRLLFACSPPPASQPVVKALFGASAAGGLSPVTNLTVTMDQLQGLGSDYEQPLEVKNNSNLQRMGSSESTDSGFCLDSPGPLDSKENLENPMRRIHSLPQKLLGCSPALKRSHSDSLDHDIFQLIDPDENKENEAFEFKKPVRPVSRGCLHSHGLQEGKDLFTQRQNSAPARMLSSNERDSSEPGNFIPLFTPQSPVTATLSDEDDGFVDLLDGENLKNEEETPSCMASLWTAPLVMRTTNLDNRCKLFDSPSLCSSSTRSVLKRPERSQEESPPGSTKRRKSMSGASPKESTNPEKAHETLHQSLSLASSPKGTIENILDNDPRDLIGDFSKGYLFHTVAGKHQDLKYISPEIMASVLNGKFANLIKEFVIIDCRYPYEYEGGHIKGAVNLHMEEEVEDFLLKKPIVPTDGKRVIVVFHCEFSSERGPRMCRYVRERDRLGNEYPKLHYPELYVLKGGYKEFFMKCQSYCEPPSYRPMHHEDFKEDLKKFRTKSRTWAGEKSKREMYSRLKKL

[2] = biological target: T2, Polyunsaturated fatty acid 5-lipoxygenase (Homo sapiens, UniProt P09917); test: Inhibition of 5-LOX
T2 sequence (P09917 whole entry): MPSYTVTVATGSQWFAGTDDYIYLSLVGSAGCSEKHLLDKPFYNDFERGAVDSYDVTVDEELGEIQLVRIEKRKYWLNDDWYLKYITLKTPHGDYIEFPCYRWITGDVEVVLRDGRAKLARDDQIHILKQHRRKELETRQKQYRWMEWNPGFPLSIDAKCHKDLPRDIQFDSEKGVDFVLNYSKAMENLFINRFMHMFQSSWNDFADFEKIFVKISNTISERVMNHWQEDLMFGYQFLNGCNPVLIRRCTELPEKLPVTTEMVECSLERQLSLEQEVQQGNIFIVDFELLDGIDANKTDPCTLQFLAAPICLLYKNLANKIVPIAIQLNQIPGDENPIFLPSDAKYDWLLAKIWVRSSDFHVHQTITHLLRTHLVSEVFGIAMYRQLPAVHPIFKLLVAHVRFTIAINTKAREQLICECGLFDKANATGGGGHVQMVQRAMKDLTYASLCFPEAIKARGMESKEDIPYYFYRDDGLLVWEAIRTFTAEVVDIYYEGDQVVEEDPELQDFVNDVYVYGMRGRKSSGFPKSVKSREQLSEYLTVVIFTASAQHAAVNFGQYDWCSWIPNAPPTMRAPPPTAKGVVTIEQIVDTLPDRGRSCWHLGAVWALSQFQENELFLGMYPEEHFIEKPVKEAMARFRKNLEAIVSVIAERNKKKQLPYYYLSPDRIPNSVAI

IC50 [1] | IC50 [2] | SMILES
22.3 µM |  | COC(=O)[C@@H]1[C@H]2C[C@H]3c4[nH]c5ccccc5c4CCN3C[C@@H]2CC[C@@H]1O [YOHIMBINE]
 | 360 nM | CC(c1ccc(OCc2ccccc2)cc1)N(O)C(N)=O (centres undefined)
 | 7500 nM | c1ccc(COc2ccc3ccccc3c2)cc1
 | 1500 nM | COC1(c2cccc(COc3ccc4ccccc4c3)c2)CCOCC1
